Patent US12479847B2 (DANA-FARBER CANCER INSTITUTE, INC., priority 2019, dated 2025)
Like-named read-outs stand apart in the source and are kept apart here.

Experiments:
Assay in all cases: KINOMEscan (ScanMAX) kinase profiling
Type in all cases: binding
panel of 468 kinases [1] = biological target: T1, panel of 468 kinases (Homo sapiens, UniProt O76039); conditions: CDKL5; 1 μM; read-out: % control
T1 construct: purchased KINOMEscan (ScanMAX) service
T1 sequence (O76039 1-960): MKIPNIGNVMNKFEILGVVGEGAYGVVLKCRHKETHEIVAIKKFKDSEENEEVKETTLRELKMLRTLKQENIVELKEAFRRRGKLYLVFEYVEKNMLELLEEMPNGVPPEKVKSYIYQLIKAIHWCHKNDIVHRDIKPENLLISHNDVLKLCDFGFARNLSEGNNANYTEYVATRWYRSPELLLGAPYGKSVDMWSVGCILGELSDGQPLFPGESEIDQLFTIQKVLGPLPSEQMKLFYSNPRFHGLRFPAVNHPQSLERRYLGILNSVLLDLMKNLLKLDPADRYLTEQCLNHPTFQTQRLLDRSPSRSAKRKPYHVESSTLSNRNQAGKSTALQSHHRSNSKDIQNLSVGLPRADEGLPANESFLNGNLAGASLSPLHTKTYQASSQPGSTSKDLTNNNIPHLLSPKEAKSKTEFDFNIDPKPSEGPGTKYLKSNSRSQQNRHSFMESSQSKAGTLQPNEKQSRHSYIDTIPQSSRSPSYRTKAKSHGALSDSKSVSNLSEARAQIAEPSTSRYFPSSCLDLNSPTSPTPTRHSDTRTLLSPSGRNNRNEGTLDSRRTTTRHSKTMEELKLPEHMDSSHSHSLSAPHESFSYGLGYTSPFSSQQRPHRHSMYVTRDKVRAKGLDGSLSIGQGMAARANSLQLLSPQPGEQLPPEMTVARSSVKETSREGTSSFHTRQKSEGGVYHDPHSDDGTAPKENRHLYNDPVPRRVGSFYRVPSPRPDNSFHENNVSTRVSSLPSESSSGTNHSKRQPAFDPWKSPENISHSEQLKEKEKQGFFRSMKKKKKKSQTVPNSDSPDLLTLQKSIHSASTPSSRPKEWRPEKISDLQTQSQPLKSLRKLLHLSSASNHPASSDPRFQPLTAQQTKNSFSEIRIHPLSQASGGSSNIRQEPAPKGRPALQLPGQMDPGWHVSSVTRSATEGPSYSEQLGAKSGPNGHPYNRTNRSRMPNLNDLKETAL

panel of 468 kinases [2] = biological target: T2, panel of 468 kinases (Homo sapiens, UniProt P00533, G719S); conditions: EGFR(G719S); 1 μM; read-out: % control
T2 construct: purchased KINOMEscan (ScanMAX) service

panel of 468 kinases [3] = biological target: T3, panel of 468 kinases (Homo sapiens, UniProt P11802); conditions: 1 μM, read-out: % control
T3 construct: purchased KINOMEscan (ScanMAX) service
T3 sequence (P11802 whole entry): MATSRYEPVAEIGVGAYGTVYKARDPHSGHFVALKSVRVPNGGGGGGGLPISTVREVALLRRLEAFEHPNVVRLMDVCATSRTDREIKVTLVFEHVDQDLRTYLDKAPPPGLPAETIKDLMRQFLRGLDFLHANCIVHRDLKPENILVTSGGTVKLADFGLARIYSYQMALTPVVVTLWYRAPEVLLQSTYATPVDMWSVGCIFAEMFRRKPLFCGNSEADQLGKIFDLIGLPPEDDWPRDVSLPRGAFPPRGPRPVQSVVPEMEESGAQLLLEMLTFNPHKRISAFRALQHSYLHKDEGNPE

panel of 468 kinases [4] = biological target: T4, panel of 468 kinases (Homo sapiens, UniProt P23443); conditions: S6K1; 1 μM; read-out: % control
T4 construct: purchased KINOMEscan (ScanMAX) service
T4 sequence (P23443 whole entry): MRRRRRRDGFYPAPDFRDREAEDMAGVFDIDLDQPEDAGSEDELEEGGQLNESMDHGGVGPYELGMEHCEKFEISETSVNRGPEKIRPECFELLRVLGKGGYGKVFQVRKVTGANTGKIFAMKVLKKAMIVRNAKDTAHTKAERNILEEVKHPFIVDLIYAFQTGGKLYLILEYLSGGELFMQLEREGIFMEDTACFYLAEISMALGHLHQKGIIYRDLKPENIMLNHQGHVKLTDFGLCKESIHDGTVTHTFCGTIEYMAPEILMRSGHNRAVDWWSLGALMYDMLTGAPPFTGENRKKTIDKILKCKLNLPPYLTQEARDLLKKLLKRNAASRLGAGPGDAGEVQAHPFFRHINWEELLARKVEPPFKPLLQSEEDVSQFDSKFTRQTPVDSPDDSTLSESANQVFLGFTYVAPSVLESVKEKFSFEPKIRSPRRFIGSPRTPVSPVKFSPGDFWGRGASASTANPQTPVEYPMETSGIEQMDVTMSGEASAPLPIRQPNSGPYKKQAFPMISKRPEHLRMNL

panel of 468 kinases [5] = biological target: T5, panel of 468 kinases (Homo sapiens, UniProt P42336, E545K); conditions: PIK3CA(E545K); 1 μM; read-out: % control
T5 construct: purchased KINOMEscan (ScanMAX) service
T5 sequence (P42336 whole entry E545K): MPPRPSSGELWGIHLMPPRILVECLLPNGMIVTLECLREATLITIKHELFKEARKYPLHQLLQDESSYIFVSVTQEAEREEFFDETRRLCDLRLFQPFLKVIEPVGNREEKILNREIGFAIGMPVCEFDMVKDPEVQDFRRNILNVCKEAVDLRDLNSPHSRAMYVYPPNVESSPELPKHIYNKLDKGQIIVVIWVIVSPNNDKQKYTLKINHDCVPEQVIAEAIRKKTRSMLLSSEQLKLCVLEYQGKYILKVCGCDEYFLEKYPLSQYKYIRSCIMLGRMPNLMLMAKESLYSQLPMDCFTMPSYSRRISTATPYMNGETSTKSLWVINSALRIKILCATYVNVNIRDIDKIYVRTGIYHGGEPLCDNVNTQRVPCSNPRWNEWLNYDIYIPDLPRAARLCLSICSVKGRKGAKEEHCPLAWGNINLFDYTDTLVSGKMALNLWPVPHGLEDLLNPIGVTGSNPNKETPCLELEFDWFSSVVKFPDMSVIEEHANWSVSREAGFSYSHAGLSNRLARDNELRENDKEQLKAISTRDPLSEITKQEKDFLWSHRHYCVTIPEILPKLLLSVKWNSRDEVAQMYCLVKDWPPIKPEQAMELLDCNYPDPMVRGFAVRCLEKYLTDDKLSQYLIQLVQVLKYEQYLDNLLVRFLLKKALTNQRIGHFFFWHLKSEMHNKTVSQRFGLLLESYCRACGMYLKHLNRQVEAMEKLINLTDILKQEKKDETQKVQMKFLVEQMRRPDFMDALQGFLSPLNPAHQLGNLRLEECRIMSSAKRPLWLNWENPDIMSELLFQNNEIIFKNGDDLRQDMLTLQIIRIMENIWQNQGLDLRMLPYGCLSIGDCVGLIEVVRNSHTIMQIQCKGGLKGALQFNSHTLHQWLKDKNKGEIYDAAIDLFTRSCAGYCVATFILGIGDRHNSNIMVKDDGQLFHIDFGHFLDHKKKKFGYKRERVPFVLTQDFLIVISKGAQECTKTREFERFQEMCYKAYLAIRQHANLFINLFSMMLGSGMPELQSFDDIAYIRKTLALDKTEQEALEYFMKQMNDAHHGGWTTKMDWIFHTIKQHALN

panel of 468 kinases [6] = biological target: T6, panel of 468 kinases (Homo sapiens, UniProt P42336, H1047Y); conditions: PIK3CA(H1047Y); 1 μM; read-out: % control
T6 construct: purchased KINOMEscan (ScanMAX) service
T6 sequence (P42336 whole entry H1047Y): as the sequence (P42336 whole entry E545K) above, with K545E, H1047Y counted along it

panel of 468 kinases [7] = biological target: T7, panel of 468 kinases (Homo sapiens, UniProt P54756); conditions: EPHA5; 1 μM; read-out: % control
T7 construct: purchased KINOMEscan (ScanMAX) service
T7 sequence (P54756 25-1037): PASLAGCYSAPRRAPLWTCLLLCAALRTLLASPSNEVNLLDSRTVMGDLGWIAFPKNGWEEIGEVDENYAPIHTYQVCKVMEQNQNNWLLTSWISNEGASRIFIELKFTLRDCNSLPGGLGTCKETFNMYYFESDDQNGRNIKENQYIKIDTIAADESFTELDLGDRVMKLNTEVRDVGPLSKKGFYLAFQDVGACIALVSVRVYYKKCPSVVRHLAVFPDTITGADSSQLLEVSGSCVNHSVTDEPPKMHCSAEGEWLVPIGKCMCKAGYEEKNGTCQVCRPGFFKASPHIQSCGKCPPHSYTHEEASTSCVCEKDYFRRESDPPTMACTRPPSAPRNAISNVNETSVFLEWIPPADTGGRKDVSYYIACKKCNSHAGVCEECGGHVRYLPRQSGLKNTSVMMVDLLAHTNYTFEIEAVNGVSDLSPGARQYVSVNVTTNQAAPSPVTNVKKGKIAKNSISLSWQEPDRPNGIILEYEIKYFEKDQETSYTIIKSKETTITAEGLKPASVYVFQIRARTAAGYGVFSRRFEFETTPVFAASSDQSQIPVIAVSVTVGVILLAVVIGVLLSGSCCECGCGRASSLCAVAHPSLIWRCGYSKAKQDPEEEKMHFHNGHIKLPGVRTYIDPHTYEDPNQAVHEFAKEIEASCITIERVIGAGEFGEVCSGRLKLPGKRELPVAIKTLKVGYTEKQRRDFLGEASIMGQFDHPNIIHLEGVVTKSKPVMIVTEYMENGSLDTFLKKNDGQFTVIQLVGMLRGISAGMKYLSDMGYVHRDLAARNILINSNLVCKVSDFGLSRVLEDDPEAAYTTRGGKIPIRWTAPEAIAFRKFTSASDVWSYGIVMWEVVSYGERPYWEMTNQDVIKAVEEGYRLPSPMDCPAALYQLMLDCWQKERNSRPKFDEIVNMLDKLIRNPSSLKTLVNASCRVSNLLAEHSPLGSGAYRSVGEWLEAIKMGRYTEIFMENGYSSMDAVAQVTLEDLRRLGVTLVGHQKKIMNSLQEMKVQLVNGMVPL

panel of 468 kinases [8] = biological target: T8, panel of 468 kinases (Homo sapiens, UniProt Q13163); conditions: MEK5; 1 μM; read-out: % control
T8 construct: purchased KINOMEscan (ScanMAX) service
T8 sequence (Q13163 1-448): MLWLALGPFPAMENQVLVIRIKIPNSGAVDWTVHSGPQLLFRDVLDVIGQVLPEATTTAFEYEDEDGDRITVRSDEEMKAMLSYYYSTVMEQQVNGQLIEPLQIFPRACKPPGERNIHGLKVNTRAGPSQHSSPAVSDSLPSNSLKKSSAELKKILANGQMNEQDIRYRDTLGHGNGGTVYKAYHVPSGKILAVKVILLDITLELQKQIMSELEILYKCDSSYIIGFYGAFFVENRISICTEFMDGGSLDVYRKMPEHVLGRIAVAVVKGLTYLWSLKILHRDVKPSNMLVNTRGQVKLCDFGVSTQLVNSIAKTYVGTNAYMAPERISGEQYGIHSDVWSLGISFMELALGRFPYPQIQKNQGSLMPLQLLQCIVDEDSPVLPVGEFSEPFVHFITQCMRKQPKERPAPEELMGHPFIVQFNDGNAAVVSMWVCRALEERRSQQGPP

panel of 468 kinases [9] = biological target: T9, panel of 468 kinases (Homo sapiens, UniProt Q14004); conditions: CDC2L5; 1 μM; read-out: % control
T9 construct: purchased KINOMEscan (ScanMAX) service
T9 sequence (Q14004 whole entry): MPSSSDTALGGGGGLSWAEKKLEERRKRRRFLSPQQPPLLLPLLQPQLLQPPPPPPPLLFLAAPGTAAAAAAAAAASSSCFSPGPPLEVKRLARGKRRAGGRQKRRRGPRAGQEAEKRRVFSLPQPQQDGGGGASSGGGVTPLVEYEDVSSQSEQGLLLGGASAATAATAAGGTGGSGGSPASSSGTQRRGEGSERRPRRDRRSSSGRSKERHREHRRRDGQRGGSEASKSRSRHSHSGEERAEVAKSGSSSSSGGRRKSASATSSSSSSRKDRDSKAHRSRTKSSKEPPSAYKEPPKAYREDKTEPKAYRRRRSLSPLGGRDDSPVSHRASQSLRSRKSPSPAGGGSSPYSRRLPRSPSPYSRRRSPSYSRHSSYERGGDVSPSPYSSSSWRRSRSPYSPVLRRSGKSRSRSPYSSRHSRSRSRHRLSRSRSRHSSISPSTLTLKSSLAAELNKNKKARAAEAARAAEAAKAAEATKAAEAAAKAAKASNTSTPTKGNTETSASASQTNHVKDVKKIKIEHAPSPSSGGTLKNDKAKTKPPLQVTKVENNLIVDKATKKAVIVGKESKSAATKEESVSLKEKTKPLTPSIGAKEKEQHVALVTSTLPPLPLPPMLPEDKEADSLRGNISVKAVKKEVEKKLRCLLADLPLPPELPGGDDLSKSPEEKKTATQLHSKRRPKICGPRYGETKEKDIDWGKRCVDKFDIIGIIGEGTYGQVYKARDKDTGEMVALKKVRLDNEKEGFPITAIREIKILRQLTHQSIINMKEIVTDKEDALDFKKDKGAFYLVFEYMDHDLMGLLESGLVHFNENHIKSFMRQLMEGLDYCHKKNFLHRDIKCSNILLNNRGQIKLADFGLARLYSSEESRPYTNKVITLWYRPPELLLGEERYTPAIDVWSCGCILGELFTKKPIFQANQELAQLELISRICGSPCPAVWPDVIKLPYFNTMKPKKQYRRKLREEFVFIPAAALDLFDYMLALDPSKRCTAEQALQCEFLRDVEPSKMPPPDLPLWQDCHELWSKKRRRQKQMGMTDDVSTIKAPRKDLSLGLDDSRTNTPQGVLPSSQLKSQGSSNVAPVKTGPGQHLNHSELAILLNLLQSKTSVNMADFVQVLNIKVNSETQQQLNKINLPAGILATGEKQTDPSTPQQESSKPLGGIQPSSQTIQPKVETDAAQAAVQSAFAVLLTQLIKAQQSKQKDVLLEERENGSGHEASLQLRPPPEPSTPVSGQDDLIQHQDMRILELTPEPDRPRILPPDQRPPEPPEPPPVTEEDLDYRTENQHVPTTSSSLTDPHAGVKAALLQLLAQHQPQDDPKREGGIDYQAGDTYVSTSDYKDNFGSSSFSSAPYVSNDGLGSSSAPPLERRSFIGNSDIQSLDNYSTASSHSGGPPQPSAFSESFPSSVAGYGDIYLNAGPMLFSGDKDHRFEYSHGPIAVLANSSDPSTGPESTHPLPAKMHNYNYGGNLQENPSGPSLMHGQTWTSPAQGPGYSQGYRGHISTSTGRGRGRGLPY

panel of 468 kinases [10] = biological target: T10, panel of 468 kinases (Homo sapiens, UniProt Q15746); conditions: MYLK; 1 μM; read-out: % control
T10 construct: purchased KINOMEscan (ScanMAX) service

panel of 468 kinases [11] = biological target: T11, panel of 468 kinases (Homo sapiens, UniProt Q6DT37); conditions: DMPK2; 1 μM; read-out: % control
T11 construct: purchased KINOMEscan (ScanMAX) service

panel of 468 kinases [12] = biological target: T12, panel of 468 kinases (Homo sapiens, UniProt Q99755); conditions: PIP5K1A; 1 μM; read-out: % control
T12 construct: purchased KINOMEscan (ScanMAX) service
T12 sequence (Q99755 whole entry): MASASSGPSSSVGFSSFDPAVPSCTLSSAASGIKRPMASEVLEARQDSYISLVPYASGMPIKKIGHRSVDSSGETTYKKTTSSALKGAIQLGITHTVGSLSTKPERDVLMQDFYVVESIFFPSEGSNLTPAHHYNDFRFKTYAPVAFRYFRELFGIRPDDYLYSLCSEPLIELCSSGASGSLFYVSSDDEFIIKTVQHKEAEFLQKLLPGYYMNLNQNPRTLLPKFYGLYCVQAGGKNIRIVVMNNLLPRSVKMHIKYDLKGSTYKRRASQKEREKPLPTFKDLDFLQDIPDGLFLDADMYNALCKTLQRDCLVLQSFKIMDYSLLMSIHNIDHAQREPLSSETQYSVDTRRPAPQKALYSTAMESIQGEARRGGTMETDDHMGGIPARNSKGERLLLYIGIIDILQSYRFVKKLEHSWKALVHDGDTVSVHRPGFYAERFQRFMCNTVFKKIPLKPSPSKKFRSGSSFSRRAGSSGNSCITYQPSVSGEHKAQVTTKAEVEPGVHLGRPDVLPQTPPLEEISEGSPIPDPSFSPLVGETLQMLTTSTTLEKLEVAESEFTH

panel of 468 kinases [13] = biological target: T13, panel of 468 kinases (Homo sapiens, UniProt Q9Y6R4); conditions: MAP3K4; 1 μM; read-out: % control
T13 construct: purchased KINOMEscan (ScanMAX) service

| SMILES | remaining binding at 1 µM (panel of 468 kinases [1]) [%] | remaining binding at 1 µM (panel of 468 kinases [2]) [%] | remaining binding at 1 µM (panel of 468 kinases [3]; CDK4-cyclinD1) [%] | remaining binding at 1 µM (panel of 468 kinases [3]; CDK4-cyclinD3) [%] | remaining binding at 1 µM (panel of 468 kinases [3]; CDK4) [%] | remaining binding at 1 µM (panel of 468 kinases [4]) [%] | remaining binding at 1 µM (panel of 468 kinases [5]) [%] | remaining binding at 1 µM (panel of 468 kinases [6]) [%] | remaining binding at 1 µM (panel of 468 kinases [7]) [%] | remaining binding at 1 µM (panel of 468 kinases [8]) [%] | remaining binding at 1 µM (panel of 468 kinases [9]) [%] | remaining binding at 1 µM (panel of 468 kinases [10]) [%] | remaining binding at 1 µM (panel of 468 kinases [11]) [%] | remaining binding at 1 µM (panel of 468 kinases [12]) [%] | remaining binding at 1 µM (panel of 468 kinases [13]) [%] |
| --- | --- | --- | --- | --- | --- | --- | --- | --- | --- | --- | --- | --- | --- | --- | --- |
| CNc1nc(Nc2ccc(C(=O)N3CCC(N4CCOCC4)CC3)c3c2OCO3)nc2[nH]cc(Cl)c12 [Compound 75, (7-((5-chloro-4-(methylamino)-7H-pyrrolo[2,3-d]pyrimidin-2-yl)amino)benzo[d][1,3]dioxol-4-yl)(4-morpholinopiperidin-1-yl)methanone] | 83 | 100 | 81 | 100 | 80 | 63 | 100 | 68 | 100 | 47 | 57 | 18 | 100 | 34 | 100 |
| CNc1nc(Nc2ccc(S(=O)(=O)N3CCC(N4CCOCC4)CC3)cc2OC)nc2[nH]cc(Cl)c12 [Compound 12, 5-chloro-N2-(2-methoxy-4-((4-morpholinopiperidin-1-yl)sulfonyl)phenyl)-N4-methyl-7H-pyrrolo[2,3-d]pyrimidine-2,4-diamine] | 83 | 99 | 74 | 100 | 68 | 100 | 89 | 64 | 100 | 86 | 54 | 8.8 | 100 | 100 | 100 |
| CNc1nc(Nc2ccc(P3(=O)CCN(C4CCOCC4)CC3)cc2OC)nc2[nH]cc(Cl)c12 [Compound 77, 4-(4-((5-chloro-4-(methylamino)-7H-pyrrolo[2,3-d]pyrimidin-2-yl)amino)-3-methoxyphenyl)-1-(tetrahydro-2H-pyran-4-yl)-1,4-azaphosphinane 4-oxide] | 91 | 100 | 87 | 100 | 71 | 98 | 94 | 73 | 100 | 61 | 55 | 0.05 | 94 | 100 | 100 |
